Measurements from article PMC6268079, “Synthesis and Biological Evaluation of 2-(3-Fluoro-4-nitro phenoxy)-N-phenylacetamide Derivatives as Novel Potential Affordable Antitubercular Agents” (Molecules, 2012).
≈ marks a conversion by molar mass, not a printed value.

Assays:
[1] = tested on: Isoniazide-resistant TB 242; assay: microbe, parasite or virus in culture; assay type: cell-based; conditions: Mycobacterium tuberculosis
[2] = tested on: Rifampicin-resistant TB 261; assay: microbe, parasite or virus in culture; assay type: cell-based; conditions: Mycobacterium tuberculosis

| Compound | MIC [1] [µg/mL] | MIC [2] [µg/mL] |
| --- | --- | --- |
| O=C(COc1ccc([N+](=O)[O-])c(F)c1)Nc1ccccc1[N+](=O)[O-] [Compound 3m, 2-(3-Fluoro-4-nitrophenoxy)-N-(2-nitrophenyl)acetamide] | 32 (≈ 95.5 µM) | 4 (≈ 11.9 µM) |
| COC(=O)COc1ccc(NC(=O)COc2ccc(C)cc2C)cc1 [I, methyl 2-(4-(2-(2,4-dimethylphenoxy)acetamido)phenoxy)acetate] | 16 (≈ 46.6 µM) | 4 (≈ 11.6 µM) |
| NNC(=O)c1ccncc1 [Isoniazide] | 0.5 (≈ 3.65 µM) | 0.125 (≈ 0.911 µM) |
| CO[C@H]1/C=C/O[C@@]2(C)Oc3c(C)c(O)c4c(O)c(c(/C=N/N5CCN(C)CC5)c(O)c4c3C2=O)NC(=O)/C(C)=C\C=C\[C@H](C)[C@H](O)[C@@H](C)[C@@H](O)[C@@H](C)[C@H](OC(C)=O)[C@@H]1C [Rifampicin] | ≤ 0.25 | > 32 |
